The values that follow come from patent US12018267B2, “Plants having increased tolerance to herbicides” (BASF SE, priority 2015, dated 2024).

The subject of test [1] is transgenic Arabidopsis plants with wildtype or mutated cellulose synthase sequences (SEQ ID NO: 1 or 3). The experiment in a line: 48-well plate growth inhibition of transgenic T2 Arabidopsis, relative tolerance rates versus non-transgenic (Table E2-1). The format is in vivo, Arabidopsis thaliana. The note with it: growth inhibition evaluated seven to ten days after seeding. The source says: For transformation of Arabidopsis thaliana, wildtype or mutated cellulose synthase sequences encoding for one of the following protein sequences SEQ ID NO: 1 or 3, are cloned with standard cloning techniques as described in Sambrook et al. (Molecular cloning (2001) Cold Spring Harbor Laboratory Press) in a binary vector containing resistance marker gene cassette (AHAS) and mutated cellulose synthase sequence (marked as GOI) in between ubiquitin promoter (PcUbi) and nopaline synthase terminator (NOS) sequence. Binary plasmids are introduced to Agrobacterium tumefaciens for plant transformation. Arabidopsis thaliana are transformed with wildtype or mutated cellulose synthase sequences by floral dip method as described by McElver and Singh (WO 2008/124495). Transgenic Arabidopsis plants are subjected to TaqMan analysis for analysis of the number of integration loci.
Transgenic Arabidopsis thaliana plants (T2) are assayed for improved tolerance to azine herbicides like e. g. 6-cyclopentyl-N4-(2,3,4,5,6-pentafluorophenyl)-1,3,5-triazine-2,4-diamine in 48-well plates. Therefore, T2 seeds are surface sterilized by stirring for 5 min in ethanol+water (70+30 by volume), rinsing one time with ethanol+water (70+30 by volume) and two times with sterile, deionized water. The seeds are resuspended in 0.1% agar dissolved in water (w/v) Four to five seeds per well are plated on solid nutrient medium consisting of half-strength murashige skoog nutrient solution, pH 5.8 (Murashige and Skoog (1962) Physiologia Plantarum 15: 473-497). Compounds are dissolved in dimethylsulfoxid (DMSO) and added to the medium prior solidification (final DMSO concentration 0.1%). Multi well plates are incubated in a growth chamber at 22° C., 75% relative humidity and 110 μmol Phot*m^−2*s^−1 with 14:10 h light:dark photoperiod. Growth inhibition is evaluated seven to ten days after seeding in comparison to wild type plants. Tolerance factors are calculated based on IC50 values of growth inhibition of transformed versus non-transformed Arabidopsis plants.

The test system of test [2] is wildtype Arabidopsis thaliana. As to the kind of experiment: Greenhouse pre-emergent treatment of M3 Arabidopsis seeds, phytotox (injury) rating, wildtype. Format: in vivo. The settings on record: 21 days after treatment. Here is the method:
(§1) Additionally, M3 Arabidopsis seeds are tested for improved tolerance to CESA-inhibiting herbicides in greenhouse studies with azine compounds like e. g. N2-(4-chloro-3,5,6-trifluoro-2-pyridyl)-6-(1-fluorocyclopentyl)-1,3,5-triazine-2,4-diamine (Table E1-1, see also FIG. 3).

Test [3] has as its system At_CESA1_R292H (SEQ ID 1 - Variant R292H) M3 Arabidopsis plants. The experiment in a line: Greenhouse pre-emergent treatment of M3 Arabidopsis seeds, phytotox (injury) rating, CESA1 R292H variant. The settings on record: 21 days after treatment. Format: in vivo, Arabidopsis thaliana.
Excerpt: For selection of cellulose biosynthesis inhibitor resistant plants EMS mutagenized seed populations of Arabidopsis thaliana are used. EMS mutagenized seed populations are either bought from Lehle Seeds (1102 South Industrial Blvd. Suite D, Round Rock, Texas USA) or are generated as described elsewhere (Heim D R, et al. (1989) Plant Physiol. 90: 146-150). Causative mutations in CESA wildtype sequences (e.g. SEQ ID NO: 1 or 3) are identified as described by Scheible W R et al. (2001, Proc. Natl. Acad. of Sci. 98: 10079-10084), McCourt et. al. (WO2013/142968) or with the use of next generation sequencing methods as described by Austin R S, et al. (2011) Plant Journal 67: 715-725.
as §1

[4] abbreviates: Construct AtCesA1_G1031R, SEQ ID 1, variant G1031R.
The mark [5] stands for this setting: Construct AtCesA1_R292H, SEQ ID 1, variant R292H.
Setting [6] is: Construct AtCesA1_V297M, SEQ ID 1, variant V297M.
The mark [7] stands for this setting: Construct AtCesA1_wt, SEQ ID 1, no variant.
Where [8] appears, read: Construct AtCesA3_wt, SEQ ID 3, no variant.
[9] abbreviates: Construct AtCesA1_L1011A, SEQ ID 1, variant L1011A.
Where [10] appears, read: Construct AtCesA3_F1039L, SEQ ID 3, variant F1039L.

In the case of `Cc1cccc(-n2nc(C(N)=O)nc2-c2ccccc2)c1`, the “Relative tolerance rate of transgenic Arabidopsis plants as compared to non-transgenic (non-transgenic = 1.0)” value (“Relative tolerance rate … (non-transgenic = 1.0)” for short) in test [1] (setting [4]) stood at 13; in test [1] (setting [5]), 31; in test [1] (setting [6]), 5; in test [1] (setting [7]) it was 3; in test [1] (setting [8]), 4.
On to `NC(=O)c1nc(-c2ccccc2)n(-c2ccc(Cl)c(COCC(F)(F)C(F)(F)F)c2)n1` [1-[4-chloro-3-(2,2,3,3,3-pentafluoropropoxymethyl)phenyl]-5-phenyl-1,2,4-triazole-3-carboxamide, reference compound], for which the phytotox value in test [2] (7.8 g ai/ha) amounted to 12.5; in test [2] (31.25 g ai/ha) it was 99; in test [2] (125 g ai/ha), 100; in test [2] (250 g ai/ha) it was 100; in test [3] (At_CESA1_R292H event A, 7.8 g ai/ha), 7.5; in test [3] (At_CESA1_R292H event A, 31.25 g ai/ha), 80. The phytotox value in test [3] (At_CESA1_R292H event A, 125 g ai/ha) is given as 100; in test [3] (At_CESA1_R292H event A, 250 g ai/ha), 100; in test [3] (At_CESA1_R292H event B, 7.8 g ai/ha), 25; in test [3] (At_CESA1_R292H event B, 31.25 g ai/ha), 52.5; in test [3] (At_CESA1_R292H event B, 125 g ai/ha), 100; in test [3] (At_CESA1_R292H event B, 250 g ai/ha), 100. For the same compound, the “Relative tolerance rate … (non-transgenic = 1.0)” value amounted to 7 in test [1] (setting [9]) and 3 in test [1] (setting [10]).
As for `Nc1nc(Nc2nc(F)c(F)c(Cl)c2F)nc(C2(F)CCCC2)n1` [N2-(4-chloro-3,5,6-trifluoro-2-pyridyl)-6-(1-fluorocyclopentyl)-1,3,5-triazine-2,4-diamine], the phytotox value in test [2] (0.5 g ai/ha) was 60; in test [2] (1 g ai/ha) it was 65; in test [2] (2 g ai/ha), 98; in test [2] (4 g ai/ha), 100; in test [3] (At_CESA1_R292H event A, 0.5 g ai/ha), 10; in test [3] (At_CESA1_R292H event A, 1 g ai/ha), 10. Also, the phytotox value in test [3] (At_CESA1_R292H event A, 2 g ai/ha) is 45; in test [3] (At_CESA1_R292H event A, 4 g ai/ha) it was 94; in test [3] (At_CESA1_R292H event B, 0.5 g ai/ha), 5; in test [3] (At_CESA1_R292H event B, 1 g ai/ha), 0; in test [3] (At_CESA1_R292H event B, 2 g ai/ha), 17.5; in test [3] (At_CESA1_R292H event B, 4 g ai/ha), 87.5. Also, the “Relative tolerance rate … (non-transgenic = 1.0)” value in test [1] (setting [4]) came out at 3; in test [1] (setting [9]), 1; in test [1] (setting [5]), 1; in test [1] (setting [6]) it was 1; in test [1] (setting [7]), 2; in test [1] (setting [10]), 1. Further, the “Relative tolerance rate … (non-transgenic = 1.0)” value in test [1] (setting [8]) is 1.
